Test results taken from US20250340557A1, “PYRIMIDINE DERIVATIVE” (ASKA PHARMACEUTICAL CO., LTD., priority 2022, published 2025).
pIC50: −log10 of the molar value.

The compounds below were run against T1, human mPGES-1 (Homo sapiens, UniProt O14684) (assay: Test for mPGES-1 inhibitory activity (microsomal enzyme, PGE2 EIA)). Conditions: microsomes from COS-1 cells transfected with human mPGES-1 cDNA; substrate PGH2 1 μM; 4° C., 4 minutes; PGE2 measured by EIA; read-out: h mPGES1 IC50.
T1 construct: made in house; host or cells: COS-1 cells (transient transfection; microsomal fraction used as enzyme)
T1 sequence (O14684 1-152): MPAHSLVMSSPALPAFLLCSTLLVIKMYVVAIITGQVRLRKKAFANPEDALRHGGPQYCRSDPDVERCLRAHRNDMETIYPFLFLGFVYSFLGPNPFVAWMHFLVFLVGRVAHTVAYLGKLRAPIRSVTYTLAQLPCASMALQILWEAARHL
Assay type: biochemical
Outline: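 IC50 values were derived from EIA-quantified PGE2 after a 4 min, 4 °C reaction with PGH2 at 1 μM final, stopped with ferric chloride/citric acid. Beforehand, compound (2% DMSO final) sat 15 min at 4 °C with human mPGES-1 microsomes from transiently transfected COS-1 cells. Buffer was sodium phosphate pH 7.2 containing 2.5 mM reduced glutathione and 1 mM EDTA.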

Row | Compound | pIC50
1 | Cc1cc(=O)[nH]c(-c2c(C(F)(F)F)ccc(CNC(=O)C3CCN(c4ccc(Cl)cc4)CC3)c2F)n1 [Example 76, 1-(4-chlorophenyl)-N-[2-fluoro-3-(4-methyl-6-oxo-1,6-dihydropyrimidin-2-yl)-4-(trifluoromethyl)benzyl]piperidine-4-carboxamide] | 7.51
2 | Cc1nc(-c2c(C(F)(F)F)ccc(CNC(=O)C3CCN(c4ccc(Cl)cc4)CC3)c2F)[nH]c(=O)c1F [Example 77, 1-(4-chlorophenyl)-N-[2-fluoro-3-(5-fluoro-4-methyl-6-oxo-1,6-dihydropyrimidin-2-yl)-4-(trifluoromethyl)benzyl]piperidine-4-carboxamide] | 7.80
3 | CCc1nc(-c2c(C(F)(F)F)ccc(CNC(=O)C3CCN(c4ccc(Cl)cc4)CC3)c2F)[nH]c(=O)c1F [Example 79, 1-(4-chlorophenyl)-N-[3-(4-ethyl-5-fluoro-6-oxo-1,6-dihydropyrimidin-2-yl)-2-fluoro-4-(trifluoromethyl)benzyl]piperidine-4-carboxamide] | 7.25
4 | CCc1nc(-c2c(C(F)(F)F)ccc(CNC(=O)C3CCN(c4ccc(OC(F)(F)F)cc4)CC3)c2F)[nH]c(=O)c1F [Example 80, N-[3-(4-ethyl-5-fluoro-6-oxo-1,6-dihydropyrimidin-2-yl)-2-fluoro-4-(trifluoromethyl)benzyl]-1-[4-(trifluoromethoxy)phenyl]piperidine-4-carboxamide] | 7.66
5 | O=C(NCc1ccc(C(F)(F)F)c(-c2nc(C(F)(F)F)cc(=O)[nH]2)c1F)C1CCN(c2ccc(Cl)c(F)c2)CC1 [Example 81, 1-(4-chloro-3-fluorophenyl)-N-{2-fluoro-3-[6-oxo-4-(trifluoromethyl)-1,6-dihydropyrimidin-2-yl]-4-(trifluoromethyl)benzyl}piperidine-4-carboxamide] | 8.30
6 | O=C(NCc1ccc(C(F)(F)F)c(-c2nc(C(F)(F)F)cc(=O)[nH]2)c1F)C1CCN(c2cc(Cl)cc(Cl)c2)CC1 [Example 82, 1-(3,5-dichlorophenyl)-N-{2-fluoro-3-[6-oxo-4-(trifluoromethyl)-1,6-dihydropyrimidin-2-yl]-4-(trifluoromethyl)benzyl}piperidine-4-carboxamide] | 8.09
7 | COc1cc(N2CCC(C(=O)NCc3ccc(C(F)(F)F)c(-c4nc(C(F)(F)F)cc(=O)[nH]4)c3F)CC2)ccc1Cl [Example 83, 1-(4-chloro-3-methoxyphenyl)-N-{2-fluoro-3-[6-oxo-4-(trifluoromethyl)-1,6-dihydropyrimidin-2-yl]-4-(trifluoromethyl)benzyl}piperidine-4-carboxamide] | 8.15
8 | O=C(NCc1ccc(C(F)(F)F)c(-c2nc(C(F)F)cc(=O)[nH]2)c1F)C1CCN(c2ccc(Cl)c(Cl)c2)CC1 [Example 84, 1-(3,4-dichlorophenyl)-N-{3-[4-(difluoromethyl)-6-oxo-1,6-dihydropyrimidin-2-yl]-2-fluoro-4-(trifluoromethyl)benzyl}piperidine-4-carboxamide] | 8.28
9 | O=C(NCc1ccc(C(F)(F)F)c(-c2nc(C(F)F)cc(=O)[nH]2)c1F)C1CCN(c2ccc(OC(F)(F)F)cc2)CC1 [Example 85, N-{3-[4-(difluoromethyl)-6-oxo-1,6-dihydropyrimidin-2-yl]-2-fluoro-4-(trifluoromethyl)benzyl}-1-[4-(trifluoromethoxy)phenyl]piperidine-4-carboxamide] | 9.21
10 | Cc1cc(=O)[nH]c(-c2c(C(F)(F)F)ccc(CNC(=O)C3CCN(c4ccc(Cl)c(Cl)c4)CC3)c2F)n1 [Example 86, 1-(3,4-dichlorophenyl)-N-[2-fluoro-3-(4-methyl-6-oxo-1,6-dihydropyrimidin-2-yl)-4-(trifluoromethyl)benzyl]piperidine-4-carboxamide] | > 9.00
11 | Cc1cc(=O)[nH]c(-c2c(C(F)(F)F)ccc(CNC(=O)C3CCN(c4ccc(OC(F)(F)F)cc4)CC3)c2F)n1 [Example 87, N-[2-fluoro-3-(4-methyl-6-oxo-1,6-dihydropyrimidin-2-yl)-4-(trifluoromethyl)benzyl]-1-[4-(trifluoromethoxy)phenyl]piperidine-4-carboxamide] | 7.41
12 | O=C(NCc1ccc(C(F)(F)F)c(-c2nc(C(F)(F)F)cc(=O)[nH]2)c1F)C1CCN(c2ccc(F)c(Cl)c2)CC1 [Example 88, 1-(3-chloro-4-fluorophenyl)-N-{2-fluoro-3-[6-oxo-4-(trifluoromethyl)-1,6-dihydropyrimidin-2-yl]-4-(trifluoromethyl)benzyl}piperidine-4-carboxamide] | > 9.00
13 | O=C(NCc1ccc(C(F)(F)F)c(-c2nc3c(c(=O)[nH]2)CCC3)c1F)C1CCN(c2ccc(Cl)cc2)CC1 [Example 89, 1-(4-chlorophenyl)-N-[2-fluoro-3-(4-oxo-4,5,6,7-tetrahydro-3H-cyclopenta[d]pyrimidin-2-yl)-4-(trifluoromethyl)benzyl]piperidine-4-carboxamide] | > 9.00
14 | CCc1nc(-c2c(C(F)(F)F)ccc(CNC(=O)C3CCN(c4ccc(C#N)cc4Cl)CC3)c2F)[nH]c(=O)c1F [Example 90, 1-(2-chloro-4-cyanophenyl)-N-[3-(4-ethyl-5-fluoro-6-oxo-1,6-dihydropyrimidin-2-yl)-2-fluoro-4-(trifluoromethyl)benzyl]piperidine-4-carboxamide] | 8.80
15 | COc1cc(N2CCC(C(=O)NCc3ccc(C(F)(F)F)c(-c4nc(C)cc(=O)[nH]4)c3F)CC2)ccc1Cl [Example 93, 1-(4-chloro-3-methoxyphenyl)-N-[2-fluoro-3-(4-methyl-6-oxo-1,6-dihydropyrimidin-2-yl)-4-(trifluoromethyl)benzyl]piperidine-4-carboxamide] | 8.85
16 | Cc1cc(=O)[nH]c(-c2c(C(F)(F)F)ccc(CNC(=O)C3CCN(c4cccc(C(F)(F)F)c4)CC3)c2F)n1 [Example 94, N-[2-fluoro-3-(4-methyl-6-oxo-1,6-dihydropyrimidin-2-yl)-4-(trifluoromethyl)benzyl]-1-[3-(trifluoromethyl)phenyl]piperidine-4-carboxamide] | 7.89
17 | Cc1cc(=O)[nH]c(-c2c(C(F)(F)F)ccc(CNC(=O)C3CCN(c4ccc(Cl)c(F)c4)CC3)c2F)n1 [Example 95, 1-(4-chloro-3-fluorophenyl)-N-[2-fluoro-3-(4-methyl-6-oxo-1,6-dihydropyrimidin-2-yl)-4-(trifluoromethyl)benzyl]piperidine-4-carboxamide] | > 9.00

Now from value to compound:

Row | pIC50 | Compound
18 | > 9.00 | Cc1nc(-c2c(C(F)(F)F)ccc(CNC(=O)C3CCN(c4cccc(C(F)(F)F)c4)CC3)c2F)[nH]c(=O)c1F [Example 97, N-[2-fluoro-3-(5-fluoro-4-methyl-6-oxo-1,6-dihydropyrimidin-2-yl)-4-(trifluoromethyl)benzyl]-1-[3-(trifluoromethyl)phenyl]piperidine-4-carboxamide]
19 | 7.72 | CCc1cc(=O)[nH]c(-c2c(C(F)(F)F)ccc(CNC(=O)C3CCN(c4ccc(Cl)c(OC)c4)CC3)c2F)n1 [Example 98, 1-(4-chloro-3-methoxyphenyl)-N-[3-(4-ethyl-6-oxo-1,6-dihydropyrimidin-2-yl)-2-fluoro-4-(trifluoromethyl)benzyl]piperidine-4-carboxamide]
20 | > 9.00 | O=c1cc(C(F)(F)F)nc(-c2c(C(F)(F)F)ccc(CNC(=O)[C@H]3CC[C@H](OCc4ccccc4Cl)CC3)c2F)[nH]1 [Example 99, trans-4-[(2-chlorobenzyl)oxy]-N-{2-fluoro-3-[6-oxo-4-(trifluoromethyl)-1,6-dihydropyrimidin-2-yl]-4-(trifluoromethyl)benzyl}cyclohexane-1-carboxamide]
21 | > 9.00 | O=c1cc(C(F)(F)F)nc(-c2c(C(F)(F)F)ccc(CNC(=O)[C@H]3CC[C@H](OCc4cccc(Cl)c4)CC3)c2F)[nH]1 [Example 100, trans-4-[(3-chlorobenzyl)oxy]-N-{2-fluoro-3-[6-oxo-4-(trifluoromethyl)-1,6-dihydropyrimidin-2-yl]-4-(trifluoromethyl)benzyl}cyclohexane-1-carboxamide]
22 | > 9.00 | O=c1cc(C(F)(F)F)nc(-c2c(C(F)(F)F)ccc(CNC(=O)[C@H]3CC[C@H](OCc4ccc(Cl)cc4)CC3)c2F)[nH]1 [Example 101, trans-4-[(4-chlorobenzyl)oxy]-N-{2-fluoro-3-[6-oxo-4-(trifluoromethyl)-1,6-dihydropyrimidin-2-yl]-4-(trifluoromethyl)benzyl}cyclohexane-1-carboxamide]
23 | > 9.00 | Cc1nc(-c2c(C(F)(F)F)ccc(CNC(=O)[C@H]3CC[C@H](OCc4ccccc4Cl)CC3)c2F)[nH]c(=O)c1F [Example 102, trans-4-[(2-chlorobenzyl)oxy]-N-[2-fluoro-3-(5-fluoro-4-methyl-6-oxo-1,6-dihydropyrimidin-2-yl)-4-(trifluoromethyl)benzyl]cyclohexane-1-carboxamide]
24 | > 9.00 | O=c1cc(C(F)F)nc(-c2c(C(F)(F)F)ccc(CNC(=O)[C@H]3CC[C@H](OCc4ccccc4Cl)CC3)c2F)[nH]1 [Example 103, trans-4-[(2-chlorobenzyl)oxy]-N-{3-[4-(difluoromethyl)-6-oxo-1,6-dihydropyrimidin-2-yl]-2-fluoro-4-(trifluoromethyl)benzyl}cyclohexane-1-carboxamide]
25 | 8.92 | Cc1nc(-c2c(C(F)(F)F)ccc(CNC(=O)[C@H]3CC[C@H](OCc4ccc(Cl)cc4)CC3)c2F)[nH]c(=O)c1F [Example 104, trans-4-[(4-chlorobenzyl)oxy]-N-[2-fluoro-3-(5-fluoro-4-methyl-6-oxo-1,6-dihydropyrimidin-2-yl)-4-(trifluoromethyl)benzyl]cyclohexane-1-carboxamide]
